{"source": "PubChem BioAssay (NCI)", "experiment_in_all_cases": "NCI-60 cell line screen, 48 h", "key": {"HOP-92 NSCLC": {"system": "HOP-92 NSCLC"}, "RXF-631 renal": {"system": "RXF-631 renal"}, "NCI-H460 lung": {"system": "NCI-H460 lung"}, "IGROV1 ovarian": {"system": "IGROV1 ovarian"}, "COLO 205 colon": {"system": "COLO 205 colon"}, "MALME-3M melanoma": {"system": "MALME-3M melanoma"}, "NCI-H23 lung": {"system": "NCI-H23 lung"}, "SK-MEL-28 melanoma": {"system": "SK-MEL-28 melanoma"}, "HCC-2998 colon": {"system": "HCC-2998 colon"}, "RXF 393 renal": {"system": "RXF 393 renal"}, "OVCAR-4 ovarian": {"system": "OVCAR-4 ovarian"}, "CCRF-CEM leukemia": {"system": "CCRF-CEM leukemia"}, "CAKI-1 renal": {"system": "CAKI-1 renal"}, "OVCAR-3 ovarian": {"system": "OVCAR-3 ovarian"}, "HL-60(TB) leukemia": {"system": "HL-60(TB) leukemia"}, "SW-620 colon": {"system": "SW-620 colon"}, "HT29 colon": {"system": "HT29 colon"}, "UACC-62 melanoma": {"system": "UACC-62 melanoma"}, "K-562 leukemia": {"system": "K-562 leukemia"}, "SF-268 CNS": {"system": "SF-268 CNS"}, "MOLT-4 leukemia": {"system": "MOLT-4 leukemia"}, "XF 498 CNS": {"system": "XF 498 CNS"}, "ACHN renal": {"system": "ACHN renal"}, "SN12C renal": {"system": "SN12C renal"}, "786-0 renal": {"system": "786-0 renal"}, "HCT-15 colon": {"system": "HCT-15 colon"}, "LOX IMVI melanoma": {"system": "LOX IMVI melanoma"}, "DMS 114 small cell lung": {"system": "DMS 114 small cell lung"}, "HOP-62 NSCLC": {"system": "HOP-62 NSCLC"}, "HCT-116 colon": {"system": "HCT-116 colon"}, "NCI-H226 lung": {"system": "NCI-H226 lung"}, "A549 NSCLC": {"system": "A549 NSCLC"}, "UACC-257 melanoma": {"system": "UACC-257 melanoma"}, "SNB-19 CNS": {"system": "SNB-19 CNS"}, "M19-MEL melanoma": {"system": "M19-MEL melanoma"}, "OVCAR-5 ovarian": {"system": "OVCAR-5 ovarian"}, "RPMI-8226 leukemia": {"system": "RPMI-8226 leukemia"}, "DLD-1 colon": {"system": "DLD-1 colon"}, "SK-MEL-5 melanoma": {"system": "SK-MEL-5 melanoma"}, "M14 melanoma": {"system": "M14 melanoma"}, "SF-539 CNS": {"system": "SF-539 CNS"}, "SNB-75 CNS": {"system": "SNB-75 CNS"}, "SNB-78 CNS": {"system": "SNB-78 CNS"}, "SK-MEL-2 melanoma": {"system": "SK-MEL-2 melanoma"}, "TK-10 renal": {"system": "TK-10 renal"}, "OVCAR-8 ovarian": {"system": "OVCAR-8 ovarian"}, "KM12 colon": {"system": "KM12 colon"}, "SF-295 CNS": {"system": "SF-295 CNS"}, "KM20L2 colon": {"system": "KM20L2 colon"}, "DMS 273 small cell lung": {"system": "DMS 273 small cell lung"}, "LXFL 529 NSCLC": {"system": "LXFL 529 NSCLC"}, "U251 CNS": {"system": "U251 CNS"}, "UO-31 renal": {"system": "UO-31 renal"}, "EKVX NSCLC": {"system": "EKVX NSCLC"}, "NCI-H522 lung": {"system": "NCI-H522 lung"}, "A498 renal": {"system": "A498 renal"}}, "note": "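Grown in 96-well plates, cells were treated for 48 hours with each compound at five concentrations. Insufficient inhibition: endpoint recorded as highest concentration tested. Definition used: TGI = concentration required for complete inhibition of growth.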"}
{"smiles": "CN=C1Nc2ccc(Cl)cc2C(c2ccccc2)=NN1C", "values": [{"measurement": "TGI", "setting": "HOP-92 NSCLC", "result": 77.5, "unit": "µM"}, {"measurement": "TGI", "setting": "RXF-631 renal", "result": "> 100", "unit": "µM"}, {"measurement": "TGI", "setting": "NCI-H460 lung", "result": "> 100", "unit": "µM"}, {"measurement": "TGI", "setting": "IGROV1 ovarian", "result": "> 100", "unit": "µM"}, {"measurement": "TGI", "setting": "COLO 205 colon", "result": "> 100", "unit": "µM"}, {"measurement": "TGI", "setting": "MALME-3M melanoma", "result": "> 100", "unit": "µM"}, {"measurement": "TGI", "setting": "NCI-H23 lung", "result": "> 100", "unit": "µM"}, {"measurement": "TGI", "setting": "SK-MEL-28 melanoma", "result": "> 100", "unit": "µM"}, {"measurement": "TGI", "setting": "HCC-2998 colon", "result": 64.7, "unit": "µM"}, {"measurement": "TGI", "setting": "RXF 393 renal", "result": 81.1, "unit": "µM"}, {"measurement": "TGI", "setting": "OVCAR-4 ovarian", "result": "> 100", "unit": "µM"}, {"measurement": "TGI", "setting": "CCRF-CEM leukemia", "result": "> 100", "unit": "µM"}, {"measurement": "TGI", "setting": "CAKI-1 renal", "result": "> 100", "unit": "µM"}, {"measurement": "TGI", "setting": "OVCAR-3 ovarian", "result": "> 100", "unit": "µM"}, {"measurement": "TGI", "setting": "HL-60(TB) leukemia", "result": "> 100", "unit": "µM"}, {"measurement": "TGI", "setting": "SW-620 colon", "result": "> 100", "unit": "µM"}, {"measurement": "TGI", "setting": "HT29 colon", "result": "> 100", "unit": "µM"}, {"measurement": "TGI", "setting": "UACC-62 melanoma", "result": "> 100", "unit": "µM"}, {"measurement": "TGI", "setting": "K-562 leukemia", "result": "> 100", "unit": "µM"}, {"measurement": "TGI", "setting": "SF-268 CNS", "result": "> 100", "unit": "µM"}, {"measurement": "TGI", "setting": "MOLT-4 leukemia", "result": "> 100", "unit": "µM"}, {"measurement": "TGI", "setting": "XF 498 CNS", "result": "> 100", "unit": "µM"}, {"measurement": "TGI", "setting": "ACHN renal", "result": "> 100", "unit": "µM"}, {"measurement": "TGI", "setting": "SN12C renal", "result": "> 100", "unit": "µM"}, {"measurement": "TGI", "setting": "786-0 renal", "result": "> 100", "unit": "µM"}, {"measurement": "TGI", "setting": "HCT-15 colon", "result": "> 100", "unit": "µM"}, {"measurement": "TGI", "setting": "LOX IMVI melanoma", "result": "> 100", "unit": "µM"}, {"measurement": "TGI", "setting": "DMS 114 small cell lung", "result": "> 100", "unit": "µM"}, {"measurement": "TGI", "setting": "HOP-62 NSCLC", "result": "> 100", "unit": "µM"}, {"measurement": "TGI", "setting": "HCT-116 colon", "result": "> 100", "unit": "µM"}, {"measurement": "TGI", "setting": "NCI-H226 lung", "result": "> 100", "unit": "µM"}, {"measurement": "TGI", "setting": "A549 NSCLC", "result": "> 100", "unit": "µM"}, {"measurement": "TGI", "setting": "UACC-257 melanoma", "result": "> 100", "unit": "µM"}, {"measurement": "TGI", "setting": "SNB-19 CNS", "result": "> 100", "unit": "µM"}, {"measurement": "TGI", "setting": "M19-MEL melanoma", "result": "> 100", "unit": "µM"}, {"measurement": "TGI", "setting": "OVCAR-5 ovarian", "result": "> 100", "unit": "µM"}, {"measurement": "TGI", "setting": "RPMI-8226 leukemia", "result": "> 100", "unit": "µM"}, {"measurement": "TGI", "setting": "DLD-1 colon", "result": "> 100", "unit": "µM"}, {"measurement": "TGI", "setting": "SK-MEL-5 melanoma", "result": "> 100", "unit": "µM"}, {"measurement": "TGI", "setting": "M14 melanoma", "result": "> 100", "unit": "µM"}, {"measurement": "TGI", "setting": "SF-539 CNS", "result": "> 100", "unit": "µM"}, {"measurement": "TGI", "setting": "SNB-75 CNS", "result": "> 100", "unit": "µM"}, {"measurement": "TGI", "setting": "SNB-78 CNS", "result": "> 100", "unit": "µM"}, {"measurement": "TGI", "setting": "SK-MEL-2 melanoma", "result": "> 100", "unit": "µM"}, {"measurement": "TGI", "setting": "TK-10 renal", "result": "> 100", "unit": "µM"}, {"measurement": "TGI", "setting": "OVCAR-8 ovarian", "result": "> 100", "unit": "µM"}, {"measurement": "TGI", "setting": "KM12 colon", "result": "> 100", "unit": "µM"}, {"measurement": "TGI", "setting": "SF-295 CNS", "result": "> 100", "unit": "µM"}, {"measurement": "TGI", "setting": "KM20L2 colon", "result": "> 100", "unit": "µM"}, {"measurement": "TGI", "setting": "DMS 273 small cell lung", "result": "> 100", "unit": "µM"}, {"measurement": "TGI", "setting": "LXFL 529 NSCLC", "result": "> 100", "unit": "µM"}, {"measurement": "TGI", "setting": "U251 CNS", "result": "> 100", "unit": "µM"}, {"measurement": "TGI", "setting": "UO-31 renal", "result": "> 100", "unit": "µM"}, {"measurement": "TGI", "setting": "EKVX NSCLC", "result": "> 100", "unit": "µM"}, {"measurement": "TGI", "setting": "NCI-H522 lung", "result": "> 100", "unit": "µM"}, {"measurement": "TGI", "setting": "A498 renal", "result": "> 100", "unit": "µM"}]}
